Results taken from paper PMC12040169 (PLOS Biology, 2025).

Assay: in vitro
Conditions: human, hela cells, % viability

Row | SMILES | viability at 28.5 h, 10 µM
1 | C[C@H](c1ccccc1)n1c(=O)[nH]c2ncc(-c3ccco3)nc21 [CBK064415] | 98.1%
2 | COCCCn1c(=O)[nH]c2ncc(-c3cccc(NC(C)=O)c3)nc21 [CBK064433] | 97.5%
3 | O=c1[nH]c2ncc(-c3cccc(Br)c3)nc2n1CCc1cccnc1 [CBK064457] | 103%
4 | COc1cc(Cn2c(=O)[nH]c3ncc(-c4ccco4)nc32)cc(OC)c1OC [CBK064461] | 106%
5 | O=c1[nH]c2ncc(-c3ccco3)nc2n1CCc1cccnc1 [CBK064494] | 94.7%
6 | COc1ccc(C(C)C)cc1-c1cnc2[nH]c(=O)n([C@@H](CO)C(C)C)c2n1 [CBK064495] | 90.3%
7 | CCCC/C=C/c1cnc2[nH]c(=O)n(CCc3cccnc3)c2n1 [CBK064496] | 92.7%
8 | COCCCn1c(=O)[nH]c2ncc(-c3cccc(OC)c3)nc21 [CBK064519] | 108%
9 | O=C(c1ccc(-c2cnc3[nH]c(=O)n(C4CCCCC4)c3n2)cc1)N1CCOCC1 [CBK064566] | 106%
10 | CN(C)c1cccc(-c2cnc3[nH]c(=O)n(CCc4ccncc4)c3n2)c1 [CBK064628] | 91.1%
11 | O=c1[nH]c2ncc(-c3ccoc3)nc2n1Cc1ccco1 [CBK064639] | 102%
12 | O=c1[nH]c2ncc(-c3ccoc3)nc2n1Cc1cccs1 [CBK064647] | 90.3%
13 | O=c1[nH]c2ncc(-c3ccsc3)nc2n1-c1ccc2[nH]ccc2c1 [CBK064650] | 108%
14 | CN1CCN(C(=O)c2ccc(-c3cnc4[nH]c(=O)n(Cc5ccncc5)c4n3)cc2)CC1 [CBK064679] | 101%
15 | CS(=O)(=O)c1ccc(-c2cnc3[nH]c(=O)n(-c4ccc5[nH]ccc5c4)c3n2)cc1 [CBK064691] | 96.6%
16 | CC(C)(CO)Cn1c(=O)[nH]c2ncc(-c3cccnc3)nc21 [CBK064697] | 107%
17 | CS(=O)(=O)Nc1cccc(-c2cnc3[nH]c(=O)n(Cc4cccs4)c3n2)c1 [CBK064708] | 91%

Row | SMILES | viability at 28.5 h, 10 µM
18 | C[C@H](c1ccccc1)n1c(=O)[nH]c2ncc(-c3cncc4ccccc34)nc21 [CBK064709] | 90.4%
19 | C[C@@H](c1ccccc1)n1c(=O)[nH]c2ncc(-c3cccc4ccccc34)nc21 [CBK064710] | 97%
20 | COc1ccc(C(C)C)cc1-c1cnc2[nH]c(=O)n(-c3ccc4[nH]ccc4c3)c2n1 [CBK064714] | 90.7%
21 | COc1ccc(-c2cnc3[nH]c(=O)n(Cc4cccs4)c3n2)c(OC)c1OC [CBK064716] | 97.2%
22 | C[C@@H](c1ccccc1)n1c(=O)[nH]c2ncc(-c3cncc4ccccc34)nc21 [CBK064726] | 73.9%
23 | CC(C)(CO)Cn1c(=O)[nH]c2ncc(-c3ccc(F)c(Cl)c3)nc21 [CBK064737] | 102%
24 | CC(C)[C@@H](CO)n1c(=O)[nH]c2ncc(-c3ccc(N4CCOCC4)cc3)nc21 [CBK064770] | 110%
25 | COc1ccc(-c2cnc3[nH]c(=O)n([C@@H](CO)C(C)C)c3n2)c(OC)c1OC [CBK064774] | 94.3%
26 | CC(C)(CO)Cn1c(=O)[nH]c2ncc(-c3ccc(C(N)=O)cc3)nc21 [CBK064787] | 88.5%
27 | O=c1[nH]c2ncc(-c3ccccc3)nc2n1CCCN1CCOCC1 [CBK064805] | 111%
28 | CN(C)C(=O)c1ccc(-c2cnc3[nH]c(=O)n(CCCN4CCOCC4)c3n2)cc1 [CBK064828] | 108%
29 | COc1ccc(-c2cnc3[nH]c(=O)n(CC(C)(C)CO)c3n2)c(OC)c1OC [CBK064833] | 91.8%
30 | O=c1[nH]c2ncc(-c3cccc4ncccc34)nc2n1C1CCCCC1 [CBK064861] | 109%
31 | O=C(NC1CC1)c1ccc(-c2cnc3[nH]c(=O)n(CC4CCOCC4)c3n2)cc1 [CBK064890] | 85.2%
32 | COc1ncc(-c2cnc3[nH]c(=O)n(CC4CCOCC4)c3n2)cn1 [CBK064898] | 98.1%
33 | CN1CCN(c2ccc(-c3cnc4[nH]c(=O)n(C5CC5)c4n3)cc2)CC1 [CBK064899] | 89.7%
